# Measured values: ChEMBL document CHEMBL1148585, “Classification of chemical compounds by protein-compound docking for use in designing a focused library” (J Med Chem, 2006)
# Target: T1, Macrophage migration inhibitory factor (Homo sapiens, UniProt P14174)
# T1 sequence (P14174 whole entry): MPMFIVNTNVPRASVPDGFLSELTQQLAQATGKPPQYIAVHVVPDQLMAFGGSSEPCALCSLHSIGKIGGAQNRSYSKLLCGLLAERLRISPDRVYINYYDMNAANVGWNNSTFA
# Test: Inhibition of MIF
row,SMILES,IC50
1,CC(C)C(=O)Nc1cc2c(cc1CCc1cccc3ccccc13)C(C(=O)O)CC2c1cccs1 (stereo not given),8 µM
2,O=C(O)CC(c1ccc(Cl)cc1)(c1ccc(Cl)cc1)c1ccc(Cl)cc1,8.1 µM

# Further lines, results first:
row,IC50,SMILES
1,0.4 µM,Oc1ccc(CSc2ccncc2)cc1O
2,30 µM,O=C(c1cnc(CCCC2CCCCC2)o1)N1CCN(Cc2ccccc2)CC1
3,3.4 µM,O=C(O)C1Nc2ccc(Br)cc2C2C=CCC12 (stereo not given)
